Reference: ChEMBL document CHEMBL5154787 (J Med Chem, 2022)

Tests used:
[1] = molecular target: T1, AP2-associated protein kinase 1 (Homo sapiens, UniProt Q2M2I8); assay: Inhibition of bacterially expressed GST-Xa-tagged human AAK1 using 5-FAM-labelled Aha-KEEQSQITSQVTGQIGWR-NH2 peptide as substrate incubated for 3 hrs in presence of ATP by electrophoretic analysis
[2] = molecular target: AP2-associated protein kinase 1 (Mus musculus, UniProt Q3UHJ0); assay: Displacement of 3H-LP-927443 from AAK1 in C57BL6 mouse brain homogenate assessed as inhibition constant incubated for 1 hr by liquid scintillation counter analysis; assay type: tissue-based
AP2-associated protein kinase 1 (Mus musculus, UniProt Q3UHJ0), sequence (Q3UHJ0 whole entry): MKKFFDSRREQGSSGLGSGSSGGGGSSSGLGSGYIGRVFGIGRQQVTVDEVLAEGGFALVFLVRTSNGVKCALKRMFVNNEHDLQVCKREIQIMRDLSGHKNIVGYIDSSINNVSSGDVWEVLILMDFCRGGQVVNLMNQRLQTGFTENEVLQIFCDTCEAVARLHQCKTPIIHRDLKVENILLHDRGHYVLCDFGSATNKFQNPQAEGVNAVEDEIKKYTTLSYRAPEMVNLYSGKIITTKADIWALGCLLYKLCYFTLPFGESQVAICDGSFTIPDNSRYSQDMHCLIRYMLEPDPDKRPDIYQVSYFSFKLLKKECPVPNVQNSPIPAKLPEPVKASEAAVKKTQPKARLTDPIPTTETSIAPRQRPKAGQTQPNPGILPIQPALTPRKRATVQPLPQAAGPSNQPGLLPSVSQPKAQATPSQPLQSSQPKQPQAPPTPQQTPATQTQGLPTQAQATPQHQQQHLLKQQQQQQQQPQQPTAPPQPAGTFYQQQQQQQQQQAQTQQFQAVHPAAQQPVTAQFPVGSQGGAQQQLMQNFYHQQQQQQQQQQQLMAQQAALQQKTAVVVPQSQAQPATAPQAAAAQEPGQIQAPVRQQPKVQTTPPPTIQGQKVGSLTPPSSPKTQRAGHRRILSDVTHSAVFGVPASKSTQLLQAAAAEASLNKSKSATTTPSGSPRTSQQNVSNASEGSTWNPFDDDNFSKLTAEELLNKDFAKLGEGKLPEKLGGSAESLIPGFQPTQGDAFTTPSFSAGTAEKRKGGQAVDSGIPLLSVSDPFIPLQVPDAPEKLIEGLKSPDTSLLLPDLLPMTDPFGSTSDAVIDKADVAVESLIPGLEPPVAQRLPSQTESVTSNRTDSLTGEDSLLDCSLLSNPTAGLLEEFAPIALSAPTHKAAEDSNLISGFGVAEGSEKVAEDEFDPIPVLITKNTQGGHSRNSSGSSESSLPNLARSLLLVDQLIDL

[3] = molecular target: T1, AP2-associated protein kinase 1; assay: Inhibition of full length human AAK1 expressed in HEK293F cells assessed as suppression of AP2 phosphorylation measured after 3 hrs by Western blot analysis based cellular assay; assay type: cell-based
[4] = Metabolic stability in human liver microsomes assessed as parent compound remaining at 0.5 uM incubated for 10 mins in presence of NADPH by LC-MS/MS analysis; assay type: ADME, Microsome; conditions: read-out: Stability
[5] = Metabolic stability in rat liver microsomes assessed as parent compound remaining at 0.5 uM incubated for 10 mins in presence of NADPH by LC-MS/MS analysis; assay type: ADME, Microsome; conditions: read-out: Stability
[6] = Metabolic stability in mouse liver microsomes assessed as parent compound remaining at 0.5 uM incubated for 10 mins in presence of NADPH by LC-MS/MS analysis; assay type: ADME, Microsome; conditions: liver microsomes, read-out: Stability
[7] = molecular target: Cytochrome P450 3A4 (Homo sapiens, UniProt P08684); assay: Inhibition of CYP3A4 (unknown origin) incubated for 10 mins in presence of NADPH by LC-MS/MS analysis; assay type: ADME
Cytochrome P450 3A4, sequence (P08684 whole entry): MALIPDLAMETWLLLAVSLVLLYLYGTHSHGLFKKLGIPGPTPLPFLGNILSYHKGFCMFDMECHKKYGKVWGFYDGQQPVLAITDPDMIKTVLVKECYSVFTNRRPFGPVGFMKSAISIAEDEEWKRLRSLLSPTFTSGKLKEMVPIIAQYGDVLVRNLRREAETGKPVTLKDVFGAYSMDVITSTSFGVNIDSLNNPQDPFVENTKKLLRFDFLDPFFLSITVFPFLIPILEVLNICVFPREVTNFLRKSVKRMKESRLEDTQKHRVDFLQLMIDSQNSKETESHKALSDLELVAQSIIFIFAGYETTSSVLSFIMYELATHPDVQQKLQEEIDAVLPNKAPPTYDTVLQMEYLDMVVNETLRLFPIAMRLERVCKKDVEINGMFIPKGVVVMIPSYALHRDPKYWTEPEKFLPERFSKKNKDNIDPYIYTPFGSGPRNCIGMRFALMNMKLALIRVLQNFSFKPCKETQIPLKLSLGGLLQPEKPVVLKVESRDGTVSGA

[8] = Efflux ratio of permeability in human Caco-2 cells; assay type: ADME, cell-based
[9] = Ratio of drug concentration in brain to plasma in Sprague-Dawley rat at 3 mg/kg, po measured at 2 hrs post dose; assay type: ADME, organism-based
[10] = Cardiotoxicity in aortic ring (unknown origin) assessed as relaxation of phenylephrine induced aortic ring contraction at 10 uM incubated for 1 hr; assay type: toxicity, tissue-based, Aorta; design: scale not given: the % may be the effect or the level left; conditions: human
[11] = molecular target: BMP-2-inducible protein kinase (Homo sapiens, UniProt Q9NSY1); assay: Inhibition of BIKE (unknown origin)
BMP-2-inducible protein kinase, sequence (Q9NSY1 whole entry): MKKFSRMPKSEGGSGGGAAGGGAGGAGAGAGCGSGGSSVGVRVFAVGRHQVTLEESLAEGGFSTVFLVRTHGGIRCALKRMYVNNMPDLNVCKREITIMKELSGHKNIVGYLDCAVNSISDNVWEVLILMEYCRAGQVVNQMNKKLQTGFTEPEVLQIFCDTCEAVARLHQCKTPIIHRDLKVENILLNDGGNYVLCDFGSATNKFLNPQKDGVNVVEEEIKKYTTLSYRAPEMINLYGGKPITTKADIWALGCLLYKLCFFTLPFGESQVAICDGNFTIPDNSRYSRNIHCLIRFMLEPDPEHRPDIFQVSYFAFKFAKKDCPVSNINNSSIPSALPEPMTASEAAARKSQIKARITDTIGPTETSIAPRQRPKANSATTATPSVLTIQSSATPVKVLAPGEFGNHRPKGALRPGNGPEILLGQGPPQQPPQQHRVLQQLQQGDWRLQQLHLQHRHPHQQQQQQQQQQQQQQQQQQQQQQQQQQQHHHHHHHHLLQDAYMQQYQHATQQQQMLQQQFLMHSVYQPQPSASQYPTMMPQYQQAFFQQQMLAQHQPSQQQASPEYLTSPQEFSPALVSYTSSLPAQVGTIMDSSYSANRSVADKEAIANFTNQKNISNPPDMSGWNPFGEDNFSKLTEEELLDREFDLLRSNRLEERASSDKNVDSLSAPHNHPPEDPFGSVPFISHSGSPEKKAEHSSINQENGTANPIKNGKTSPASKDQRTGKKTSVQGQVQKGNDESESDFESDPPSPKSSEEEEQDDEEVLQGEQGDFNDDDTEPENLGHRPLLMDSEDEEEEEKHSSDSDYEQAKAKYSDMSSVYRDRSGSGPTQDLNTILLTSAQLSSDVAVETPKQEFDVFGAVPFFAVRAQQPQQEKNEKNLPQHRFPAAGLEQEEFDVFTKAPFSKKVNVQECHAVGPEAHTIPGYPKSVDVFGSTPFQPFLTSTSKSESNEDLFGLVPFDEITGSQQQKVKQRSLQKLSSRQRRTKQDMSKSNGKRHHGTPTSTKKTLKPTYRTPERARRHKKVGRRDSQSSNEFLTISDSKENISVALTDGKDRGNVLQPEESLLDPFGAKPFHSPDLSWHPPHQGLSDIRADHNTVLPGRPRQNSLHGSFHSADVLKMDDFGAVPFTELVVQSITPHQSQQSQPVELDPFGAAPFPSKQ

[12] = molecular target: MAP kinase-interacting serine/threonine-protein kinase 1 (Homo sapiens, UniProt Q9BUB5); assay: Inhibition of MNK1 (unknown origin)
MAP kinase-interacting serine/threonine-protein kinase 1, sequence (Q9BUB5 whole entry): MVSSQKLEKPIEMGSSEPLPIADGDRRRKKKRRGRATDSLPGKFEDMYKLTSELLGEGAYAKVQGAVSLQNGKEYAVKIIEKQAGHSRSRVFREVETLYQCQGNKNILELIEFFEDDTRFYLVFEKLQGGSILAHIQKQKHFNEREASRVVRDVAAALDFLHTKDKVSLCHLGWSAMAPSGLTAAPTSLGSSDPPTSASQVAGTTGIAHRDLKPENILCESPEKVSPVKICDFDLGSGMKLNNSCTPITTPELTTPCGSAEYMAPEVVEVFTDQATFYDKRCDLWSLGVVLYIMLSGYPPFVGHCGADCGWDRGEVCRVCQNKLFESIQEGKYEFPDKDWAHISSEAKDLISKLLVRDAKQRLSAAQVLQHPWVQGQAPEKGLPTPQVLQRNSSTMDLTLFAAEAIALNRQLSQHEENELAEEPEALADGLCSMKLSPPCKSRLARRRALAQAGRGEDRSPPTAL

[13] = molecular target: Citron Rho-interacting kinase (Homo sapiens, UniProt O14578); assay: Inhibition of CRIK (unknown origin)
[14] = Drug concentration in STZ-induced diabetic peripheral neuropathic mechanical allodynia in overnight fasted Sprague-Dawley rat spinal cord at 1 mg/kg, po measured at 5.75 hrs post dose; assay type: ADME, organism-based; conditions: read-out: Ct
[15] = Plasma concentration in STZ-induced diabetic peripheral neuropathic mechanical allodynia in overnight fasted Sprague-Dawley rat at 1 mg/kg, po measured at 5.75 hrs post dose; assay type: ADME, organism-based
[16] = Ratio of drug concentration in spinal cord to plasma in STZ-induced diabetic peripheral neuropathic mechanical allodynia in overnight fasted Sprague-Dawley rat at 1 mg/kg, po measured at 5.75 hrs post dose; assay type: ADME, organism-based

T1 sequence (Q2M2I8 whole entry): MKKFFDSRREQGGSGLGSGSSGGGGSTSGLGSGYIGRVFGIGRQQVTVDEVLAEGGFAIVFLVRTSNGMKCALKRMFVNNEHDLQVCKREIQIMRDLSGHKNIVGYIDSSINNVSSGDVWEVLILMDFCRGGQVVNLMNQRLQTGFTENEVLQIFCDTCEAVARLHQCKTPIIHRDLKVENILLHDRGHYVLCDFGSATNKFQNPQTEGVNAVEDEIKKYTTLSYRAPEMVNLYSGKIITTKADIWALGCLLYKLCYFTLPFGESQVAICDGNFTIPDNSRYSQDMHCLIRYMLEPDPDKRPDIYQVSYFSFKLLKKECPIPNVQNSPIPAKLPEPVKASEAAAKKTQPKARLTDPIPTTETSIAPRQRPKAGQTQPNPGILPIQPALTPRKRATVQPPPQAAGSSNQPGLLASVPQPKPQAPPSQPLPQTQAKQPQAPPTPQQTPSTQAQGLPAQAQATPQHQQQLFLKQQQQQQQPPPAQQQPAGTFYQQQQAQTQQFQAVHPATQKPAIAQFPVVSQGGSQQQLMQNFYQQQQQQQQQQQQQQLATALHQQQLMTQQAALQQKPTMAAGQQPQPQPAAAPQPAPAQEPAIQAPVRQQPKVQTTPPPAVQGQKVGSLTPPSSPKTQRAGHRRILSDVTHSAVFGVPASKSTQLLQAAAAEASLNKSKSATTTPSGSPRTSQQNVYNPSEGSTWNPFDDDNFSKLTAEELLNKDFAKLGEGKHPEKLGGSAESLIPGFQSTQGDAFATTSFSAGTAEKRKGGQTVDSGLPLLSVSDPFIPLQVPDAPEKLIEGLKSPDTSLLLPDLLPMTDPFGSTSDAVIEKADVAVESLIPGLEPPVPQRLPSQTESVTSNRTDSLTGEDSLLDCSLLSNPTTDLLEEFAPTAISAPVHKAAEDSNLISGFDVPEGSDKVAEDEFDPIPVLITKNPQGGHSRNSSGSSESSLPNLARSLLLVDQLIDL

SMILES	IC50 [1] [nM]	Ki [2] [nM]	IC50 [3] [nM]	remaining at 10 min, 0.5 µM [4] [%]	remaining at 10 min, 0.5 µM [5] [%]	remaining at 10 min, 0.5 µM [6] [%]	IC50 [7] [nM]	efflux ratio [8]	Kp at 2 h [9]	IC50 [11] [nM]	IC50 [12] [nM]	IC50 [13] [nM]	concentration at 5.75 h [14] [nM]	concentration at 5.75 h [15] [nM]	Kp at 5.75 h [16]	Activity [10] [%]
COC(=O)Nc1cc(-c2ccc(OC[C@@H](N)CC(C)C)c(-c3ccno3)c2)ccn1	0.8	0.08	4.1	91	76	53	180									
COC(=O)Nc1cc(-c2ccc(OC[C@@](C)(N)CC(C)C)c(C#N)c2)ccn1	0.5	0.07	0.8	57	88	69	13000									
CC(=O)Nc1cc(-c2cc(F)c(OC[C@@H](N)CC(C)C)c(C(F)(F)F)c2)ccn1	5	1.5	4.8	74	91	69	470									
COC(=O)Nc1cc(-c2ccc(OC[C@@](C)(N)CC(C)C)c(C)c2)ccn1 (racemic)	0.8	0.08	0.8	98	96	75	> 20000									
COC(=O)Nc1cc(-c2ccc(OC[C@@](C)(N)CC(C)C)c(C)c2C)ccn1 (racemic)	4.5	0.26	9.7	93	83	70										
COc1cc(-c2ccnc(NC(C)=O)c2)ccc1OC[C@@H](N)CC(C)C		0.96	3.8	96	92	58	6900	4.2								
COC(=O)Nc1cc(-c2cnc(OC[C@@](C)(N)CC(C)C)c(OC)c2)ccn1 (racemic)	3.8	2.5		86	79	59	> 20000									91
Cc1cc(-c2cc(Cl)c(OC[C@@](C)(N)CC(C)C)cn2)ccn1		0.7	1.9	86	73	71	> 20000			1500	1900	1300				50
CC(=O)Nc1cc(-c2ccc(OC[C@@](C)(N)CC(C)C)c(C#N)c2)ccn1	0.6	0.09	0.6	64	78	71	> 20000	2.5								
COC(=O)Nc1cc(-c2ccc(OC[C@@](C)(N)CC(C)C)c(Cl)c2)ccn1 (racemic)	0.5	0.09	1.4	81	85	66	740									
CC(=O)Nc1cc(-c2ccc(OC[C@@H](N)CC(C)C)c(C)c2)ccn1	0.4	0.08	1.1	91	99	64	3900									
Cc1cc(-c2ccnc(C(F)F)c2)ncc1OC[C@@](C)(N)CC(C)C	1.4	0.3	12	83	76	80	> 20000									
CC(C)C[C@](C)(N)COc1ccc(-c2ccnc(C(F)F)c2)nc1C(F)F [PILAVAPADIN]													245	84	2.9	
CC(=O)Nc1cc(-c2cc(F)c(OC[C@@H](N)CC(C)C)cc2F)ccn1	1.3	0.6	6.7	78	90	70	7000									
CC(=O)Nc1cc(-c2ccc(OC[C@@](C)(N)CC(C)C)c(F)c2)ccn1	0.8	0.24	3.7	91	92	70	> 20000									

More lines, in order of falling Ki [2], values ahead:

IC50 [1] [nM]	Ki [2] [nM]	IC50 [3] [nM]	remaining at 10 min, 0.5 µM [4] [%]	remaining at 10 min, 0.5 µM [5] [%]	remaining at 10 min, 0.5 µM [6] [%]	IC50 [7] [nM]	efflux ratio [8]	Kp at 2 h [9]	IC50 [11] [nM]	IC50 [12] [nM]	IC50 [13] [nM]	concentration at 5.75 h [14] [nM]	concentration at 5.75 h [15] [nM]	Kp at 5.75 h [16]	SMILES	Activity [10] [%]
0.8	0.07	1.6	54	87	27	9500									CC(=O)Nc1cc(-c2ccc(OC[C@@](C)(N)CC(C)C)c(OC(F)(F)F)c2)ccn1	
0.5	0.06	0.2	89	100	86	2600									CC(=O)Nc1cc(-c2ccc(OC[C@@H](N)CC(C)C)c(Cl)c2)ccn1	
0.3	0.05	1.5	80	74	68	6900									COC(=O)Nc1cc(-c2ccc(OC[C@@](C)(N)CC(C)C)c(C(F)(F)F)c2)ccn1	
0.6	0.05	0.5	74	84	57										CC(=O)Nc1cc(-c2ccc(OC[C@@](C)(N)CC(C)C)c(C(F)F)c2)ccn1	
0.4	0.05	1	100	80	33	16300									COC(=O)Nc1cc(-c2ccc(OC[C@@](C)(N)CC(C)C)c(C3CC3)c2)ccn1	
	0.04	0.5	87	83	84	2600	6.3	0.45							CC(=O)Nc1cc(-c2ccc(OC[C@@H](N)CC(C)C)c(C#N)c2)ccn1	
0.4	0.04	0.75	91	82	53	330									CC(=O)Nc1cc(-c2ccc(OC[C@@H](N)CC(C)C)c(C(F)(F)F)c2)ccn1	
0.5	0.04	0.45	91	80	35	230									CC(=O)Nc1cc(-c2ccc(OC[C@@H](N)CC(C)C)c(OC(F)(F)F)c2)ccn1	
0.5	0.04	0.6	88	86	69	> 20000									COC(=O)Nc1cc(-c2ccc(OC[C@@](C)(N)CC(C)C)c(C(F)F)c2)ccn1	
0.4	0.04	0.4	66	90	54	14000									CC(=O)Nc1cc(-c2ccc(OC[C@@](C)(N)CC(C)C)c(C(F)(F)F)c2)ccn1	
0.6	0.04	0.2	81	83	43	7800									COC(=O)Nc1cc(-c2ccc(OC[C@@](C)(N)CC(C)C)c(OC(F)(F)F)c2)ccn1	
